Experimental data as given in ChEMBL document CHEMBL5291721, “A preclinical secondary pharmacology resource illuminates target-adverse drug reaction associations of marketed drugs” (Nat Commun, 2023).

Key:
Adenosine receptor A3 = target: T1, Adenosine receptor A3 (Homo sapiens, UniProt P0DMS8)
T1 sequence (P0DMS8 whole entry): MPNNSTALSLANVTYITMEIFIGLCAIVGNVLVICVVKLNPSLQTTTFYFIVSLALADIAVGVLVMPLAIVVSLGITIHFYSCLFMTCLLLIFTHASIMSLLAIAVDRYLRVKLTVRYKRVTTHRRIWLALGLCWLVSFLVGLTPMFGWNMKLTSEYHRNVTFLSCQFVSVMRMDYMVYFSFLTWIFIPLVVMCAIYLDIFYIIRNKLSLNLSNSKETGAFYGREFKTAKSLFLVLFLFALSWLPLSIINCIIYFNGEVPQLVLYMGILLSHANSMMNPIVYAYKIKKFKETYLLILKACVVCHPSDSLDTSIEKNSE

[1] = target: T2, 5-hydroxytryptamine receptor 2B (Homo sapiens, UniProt P41595); assay type: functional, cell-based
[2] = target: T2, 5-hydroxytryptamine receptor 2B; assay type: functional, cell-based; remark: listed apart in the source
[3] = target: T3, Alpha-2C adrenergic receptor (Homo sapiens, UniProt P18825); assay type: functional
T3 sequence (P18825 whole entry): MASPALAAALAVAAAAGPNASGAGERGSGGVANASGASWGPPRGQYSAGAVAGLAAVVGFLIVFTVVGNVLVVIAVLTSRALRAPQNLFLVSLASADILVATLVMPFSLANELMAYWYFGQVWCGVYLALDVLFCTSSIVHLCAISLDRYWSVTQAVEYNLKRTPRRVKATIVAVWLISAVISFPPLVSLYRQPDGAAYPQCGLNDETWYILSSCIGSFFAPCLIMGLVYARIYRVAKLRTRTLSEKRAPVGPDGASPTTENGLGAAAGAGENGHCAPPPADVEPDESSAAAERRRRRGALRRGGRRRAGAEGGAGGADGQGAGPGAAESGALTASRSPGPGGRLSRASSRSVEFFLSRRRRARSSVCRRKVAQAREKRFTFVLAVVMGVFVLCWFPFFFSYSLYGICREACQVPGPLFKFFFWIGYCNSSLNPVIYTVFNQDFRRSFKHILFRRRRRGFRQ

[4] = target: Gamma-aminobutyric acid receptor subunit alpha-1 (Rattus norvegicus, UniProt P62813)
[5] = target: T4, Alpha-2A adrenergic receptor (Homo sapiens, UniProt P08913); assay type: functional, cell-based
T4 sequence (P08913 whole entry): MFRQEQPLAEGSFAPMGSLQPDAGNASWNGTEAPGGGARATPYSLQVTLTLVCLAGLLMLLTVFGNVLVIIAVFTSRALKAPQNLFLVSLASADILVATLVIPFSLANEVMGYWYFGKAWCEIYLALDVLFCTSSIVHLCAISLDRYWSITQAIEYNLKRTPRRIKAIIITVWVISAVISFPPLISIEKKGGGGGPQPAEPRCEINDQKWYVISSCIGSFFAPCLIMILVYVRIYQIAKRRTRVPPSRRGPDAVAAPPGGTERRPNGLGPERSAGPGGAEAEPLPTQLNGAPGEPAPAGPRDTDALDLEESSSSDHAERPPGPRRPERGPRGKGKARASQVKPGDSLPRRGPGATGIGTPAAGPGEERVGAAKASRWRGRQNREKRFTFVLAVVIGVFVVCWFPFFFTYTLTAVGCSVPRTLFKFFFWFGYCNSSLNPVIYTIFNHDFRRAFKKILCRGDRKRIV

[6] = target: Sodium-dependent dopamine transporter (Homo sapiens, UniProt Q01959)
[7] = target: T5, Equilibrative nucleoside transporter 1 (Homo sapiens, UniProt Q99808)
T5 sequence (Q99808 whole entry): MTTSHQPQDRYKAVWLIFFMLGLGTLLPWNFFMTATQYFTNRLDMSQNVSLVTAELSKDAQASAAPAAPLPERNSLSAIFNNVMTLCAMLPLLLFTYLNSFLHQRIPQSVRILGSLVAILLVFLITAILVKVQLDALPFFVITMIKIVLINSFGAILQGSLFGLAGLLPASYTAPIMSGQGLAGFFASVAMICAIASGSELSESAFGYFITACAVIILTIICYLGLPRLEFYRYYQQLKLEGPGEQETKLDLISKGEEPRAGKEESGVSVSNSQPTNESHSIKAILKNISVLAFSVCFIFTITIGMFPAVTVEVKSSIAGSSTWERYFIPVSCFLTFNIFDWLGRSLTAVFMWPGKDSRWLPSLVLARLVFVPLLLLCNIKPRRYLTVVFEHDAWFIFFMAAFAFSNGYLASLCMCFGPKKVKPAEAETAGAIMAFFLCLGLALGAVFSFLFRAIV

[8] = target: T6, Gastrin/cholecystokinin type B receptor (Homo sapiens, UniProt P32239)
T6 sequence (P32239 whole entry): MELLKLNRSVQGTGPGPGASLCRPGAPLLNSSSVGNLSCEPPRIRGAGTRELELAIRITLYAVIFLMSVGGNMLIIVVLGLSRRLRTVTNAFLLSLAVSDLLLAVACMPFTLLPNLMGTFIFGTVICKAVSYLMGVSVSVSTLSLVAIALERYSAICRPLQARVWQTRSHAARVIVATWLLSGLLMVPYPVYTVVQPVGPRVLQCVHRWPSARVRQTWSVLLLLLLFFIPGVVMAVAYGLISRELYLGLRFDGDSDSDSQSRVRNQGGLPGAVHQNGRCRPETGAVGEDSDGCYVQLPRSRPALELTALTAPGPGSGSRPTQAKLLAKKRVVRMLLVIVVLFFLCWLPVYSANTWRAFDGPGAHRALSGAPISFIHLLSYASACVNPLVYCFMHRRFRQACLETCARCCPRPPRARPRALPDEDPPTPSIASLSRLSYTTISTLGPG
Note: assay procedure not described here.

Sequence of Sodium-dependent dopamine transporter (Q01959 whole entry): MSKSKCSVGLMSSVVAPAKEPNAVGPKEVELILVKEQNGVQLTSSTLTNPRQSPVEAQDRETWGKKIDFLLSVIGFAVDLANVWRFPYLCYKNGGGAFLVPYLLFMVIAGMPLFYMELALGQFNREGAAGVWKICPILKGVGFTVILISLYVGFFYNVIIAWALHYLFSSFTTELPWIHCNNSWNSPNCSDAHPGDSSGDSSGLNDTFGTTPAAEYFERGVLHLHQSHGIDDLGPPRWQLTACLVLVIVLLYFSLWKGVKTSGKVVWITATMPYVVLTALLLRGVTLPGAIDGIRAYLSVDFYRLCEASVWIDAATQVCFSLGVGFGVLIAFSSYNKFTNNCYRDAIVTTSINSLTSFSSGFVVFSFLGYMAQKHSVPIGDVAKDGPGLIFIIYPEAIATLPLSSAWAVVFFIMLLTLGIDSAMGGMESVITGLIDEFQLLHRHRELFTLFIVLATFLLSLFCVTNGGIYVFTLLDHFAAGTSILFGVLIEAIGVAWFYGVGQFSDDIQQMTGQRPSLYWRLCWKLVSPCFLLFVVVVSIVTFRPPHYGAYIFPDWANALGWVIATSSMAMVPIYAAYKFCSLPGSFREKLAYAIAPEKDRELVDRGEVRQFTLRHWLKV
T2 sequence (P41595 whole entry): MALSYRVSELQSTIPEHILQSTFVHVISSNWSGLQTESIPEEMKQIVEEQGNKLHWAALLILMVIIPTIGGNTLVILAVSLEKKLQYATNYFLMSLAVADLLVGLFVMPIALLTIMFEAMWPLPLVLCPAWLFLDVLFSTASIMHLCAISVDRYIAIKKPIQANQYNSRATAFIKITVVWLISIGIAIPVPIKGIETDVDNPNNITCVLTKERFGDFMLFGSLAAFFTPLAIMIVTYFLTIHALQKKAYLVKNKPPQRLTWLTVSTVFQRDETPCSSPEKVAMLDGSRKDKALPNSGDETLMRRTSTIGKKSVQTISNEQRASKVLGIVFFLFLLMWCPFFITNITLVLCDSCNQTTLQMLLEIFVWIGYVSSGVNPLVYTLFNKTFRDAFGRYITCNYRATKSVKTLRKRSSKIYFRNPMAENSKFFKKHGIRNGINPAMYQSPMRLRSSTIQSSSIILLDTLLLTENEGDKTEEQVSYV
Sequence of Gamma-aminobutyric acid receptor subunit alpha-1 (P62813 whole entry): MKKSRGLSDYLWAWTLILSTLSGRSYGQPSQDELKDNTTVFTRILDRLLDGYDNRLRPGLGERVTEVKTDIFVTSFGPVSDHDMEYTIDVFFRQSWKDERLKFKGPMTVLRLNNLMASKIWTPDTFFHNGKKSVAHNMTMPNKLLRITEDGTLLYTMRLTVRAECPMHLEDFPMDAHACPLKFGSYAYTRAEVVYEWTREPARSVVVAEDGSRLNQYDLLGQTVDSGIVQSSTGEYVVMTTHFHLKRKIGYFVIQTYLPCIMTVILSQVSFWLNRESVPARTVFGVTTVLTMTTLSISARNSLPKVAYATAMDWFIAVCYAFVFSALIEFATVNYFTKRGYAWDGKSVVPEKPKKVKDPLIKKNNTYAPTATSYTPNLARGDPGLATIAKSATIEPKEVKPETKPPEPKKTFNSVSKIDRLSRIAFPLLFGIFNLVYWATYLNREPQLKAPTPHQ

Compound | AC50 (Adenosine receptor A3) | AC50 [1] | AC50 [2] | AC50 [3] | AC50 [4] | AC50 [5] | AC50 [6] | AC50 [7] | AC50 [8]
CC(=O)OCC(=O)[C@@]12OC3(CCCC3)O[C@@H]1C[C@H]1[C@@H]3CCC4=CC(=O)C=C[C@]4(C)[C@@]3(F)[C@@H](O)C[C@@]12C [AMCINONIDE] | > 10 µM | > 10 µM | > 10 µM | > 10 µM | > 10 µM | > 10 µM | > 10 µM | > 10 µM | –
COc1ccccc1OCC(O)COC(N)=O (centres undefined) [METHOCARBAMOL] | > 10 µM | > 10 µM | > 10 µM | > 10 µM | > 10 µM | > 10 µM | > 10 µM | > 10 µM | –
C#CC1(OC(N)=O)CCCCC1 [ETHINAMATE] | > 10 µM | > 10 µM | > 10 µM | > 10 µM | > 10 µM | > 10 µM | > 10 µM | > 10 µM | –
CC1=CC(=O)c2ccccc2C1=O [MENADIONE] | 13.7 µM | > 10 µM | > 10 µM | > 30 µM | > 10 µM | > 10 µM | > 10 µM | > 10 µM | –
CC[C@]1(O)C[C@@H]2CN(CCc3c([nH]c4ccccc34)[C@@](C(=O)OC)(c3cc4c(cc3OC)N(C)[C@H]3[C@@](O)(C(N)=O)[C@H](O)[C@]5(CC)C=CCN6CC[C@]43[C@@H]65)C2)C1 [VINDESINE] | > 30 µM | > 30 µM | > 30 µM | > 30 µM | > 30 µM | > 30 µM | > 30 µM | > 30 µM | > 30 µM
CC(Cc1ccccc1)NCCC(c1ccccc1)c1ccccc1 (centres undefined) [PRENYLAMINE] | 15.6 µM | > 10 µM | > 10 µM | 2.3 µM | > 10 µM | > 10 µM | 4.7 µM | > 30 µM | > 30 µM
O=C(CCCCC(=O)Nc1c(I)cc(I)c(C(=O)O)c1I)Nc1c(I)cc(I)c(C(=O)O)c1I [IODIPAMIDE] | > 10 µM | > 10 µM | > 10 µM | > 10 µM | > 10 µM | > 10 µM | > 10 µM | > 10 µM | –
C#CCN[C@@H]1CCc2ccccc21 [RASAGILINE] | > 30 µM | > 30 µM | > 30 µM | 21 µM | > 30 µM | > 30 µM | > 30 µM | > 30 µM | > 30 µM
CC(=O)O[C@@]12CO[C@@H]1C[C@H](O)[C@@]1(C)C(=O)[C@H](O)C3=C(C)[C@@H](OC(=O)[C@H](O)[C@@H](NC(=O)OC(C)(C)C)c4ccccc4)C[C@@](O)([C@@H](OC(=O)c4ccccc4)[C@H]21)C3(C)C [DOCETAXEL ANHYDROUS] | > 30 µM | > 30 µM | > 30 µM | > 30 µM | > 30 µM | > 30 µM | > 30 µM | > 30 µM | 19.2 µM
CN[C@@H]1[C@H](O)[C@H](NC)[C@H]2O[C@@]3(O)C(=O)C[C@@H](C)O[C@H]3O[C@@H]2[C@H]1O [SPECTINOMYCIN] | > 10 µM | > 30 µM | > 30 µM | > 10 µM | > 10 µM | > 10 µM | > 10 µM | > 10 µM | –
